± gives the expanded uncertainty stated by the source.
Tests used:
[1] = wn = mass fraction of the nth substance listed; details: 313.15 K, 88.4 kPa, Liquid; for viscosity: Capillary tube (Ostwald / Ubbelohde) method; for mass density: Pycnometric method
[2] = refractive index (Na D-line) (dimensionless); wn = mass fraction of the nth substance listed; details: 313.15 K, 88.4 kPa, Liquid, Standard Abbe refractometry

viscosity ([1]; w1 = 0.3289) [mPa·s]	mass density ([1]; w1 = 0.3289) [kg/m3]	refractive index ([2]; w1 = 0.3289)	Compound	viscosity ([1]; w1 = 0.5082) [mPa·s]	mass density ([1]; w1 = 0.5082) [kg/m3]	refractive index ([2]; w1 = 0.5082)
			O=[N+]([O-])[O-].[Na+] [sodium nitrate] + O	2.14 ± 0.43	1408.4 ± 10	1.39164 ± 0.00086
2.703 ± 0.54	1317 ± 10	1.37791 ± 0.00085	O=S(=O)([O-])[O-].[Na+].[Na+] [sodium sulfate] + O			

Reference: the NIST ThermoML archive (doi:10.1021/acs.jced.8b01110)
